Values of other authors as cited in patent US20230065004A1, “METHOD FOR IMPROVING COLOUR RETENTION OF DYED KERATINOUS MATERIAL, ESPECIALLY HUMAN HAIR” (Henkel AG & Co. KGaA, priority 2019, published 2023).

Details: 25° C.

| solubility in water | SMILES |
| --- | --- |
| more than 20 wt. % | CCN(Cc1cccc(S(=O)(=O)[O-])c1)c1ccc(C(=C2C=CC(=[N+](CC)Cc3cccc(S(=O)(=O)[O-])c3)C=C2)c2ccccc2S(=O)(=O)[O-])cc1.[Na+].[Na+] [Acid Blue 9] |
| about 2.5 g/L | Nc1cc(S(=O)(=O)[O-])cc2cc(S(=O)(=O)[O-])c(N=Nc3ccccc3)c(O)c12.[Na+].[Na+] [Acid Red 33, dinatrium salt of 5-amino-4-hydroxy-3-(phenylazo)-naphthalene-2,7-disulphonate] |
| highly soluble | O=C([O-])C1=NN(c2ccc(S(=O)(=O)[O-])cc2)C(=O)C1N=Nc1ccc(S(=O)(=O)[O-])cc1.[Na+].[Na+].[Na+] (stereo not shown) [Acid Yellow 23, trisodium salt of 4,5-dihydro-5-oxo-1-(4-sulfophenyl)-4-((4-sulfophenyl)azo)-1H-pyrazole-3-carboxylic acid] |

| SMILES | solubility in water |
| --- | --- |
| O=S(=O)([O-])c1ccc(N=Nc2c(O)ccc3ccccc23)cc1.[Na+] [Acid Orange 7, sodium salt of 4-[(2-hydroxy-1-naphthyl)azo]benzene sulphonate] | more than 7 g/L |
